Experimental data as given in BindingDB's records for doi:10.7270/Q2416VG3 (Nmmlsc, 2010).

Each molecule was assayed against T1, Regulator of G-protein signaling 7 (Homo sapiens, UniProt P49802) (assay: small molecules altering RGS7 interaction with Galphao – biochemical, multiplexed bead flow cytometry, SAR compounds, SAR follow-up (AID 2296)). Conditions: not given.
T1 sequence (P49802 whole entry): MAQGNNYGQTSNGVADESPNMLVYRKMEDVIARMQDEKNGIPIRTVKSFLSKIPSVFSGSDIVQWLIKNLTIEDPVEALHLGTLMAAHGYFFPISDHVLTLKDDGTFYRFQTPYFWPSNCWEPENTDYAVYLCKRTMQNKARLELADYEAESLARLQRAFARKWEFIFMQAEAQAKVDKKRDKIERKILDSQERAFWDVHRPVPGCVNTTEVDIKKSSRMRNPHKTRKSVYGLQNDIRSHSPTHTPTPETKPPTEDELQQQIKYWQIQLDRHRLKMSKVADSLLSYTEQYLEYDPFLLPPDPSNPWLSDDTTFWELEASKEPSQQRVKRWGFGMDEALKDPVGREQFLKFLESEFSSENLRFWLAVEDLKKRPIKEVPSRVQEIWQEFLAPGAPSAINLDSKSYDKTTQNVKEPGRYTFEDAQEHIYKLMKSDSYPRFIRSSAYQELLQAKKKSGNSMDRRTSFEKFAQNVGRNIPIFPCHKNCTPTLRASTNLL
`O=C(NCCCN1CCOCC1)c1sc2cc([N+](=O)[O-])ccc2c1Cl` [3-chloranyl-N-(3-morpholin-4-ylpropyl)-6-nitro-1-benzothiophene-2-carboxamide] gave an EC50 greater than 30000 nM.
`Cc1[nH]n(-c2ccccc2)c(=S)c1C=NCCCN=Cc1c(C)[nH]n(-c2ccccc2)c1=S` was tested, and the EC50 was 2200 nM.
`COc1ccc(C2=CC(=O)C=CC2=O)cc1` [MLS001029846] gave an EC50 of 356 nM.
`CCN(CC)S(=O)(=O)c1cccc(-c2n[nH]c(=S)n2N=Cc2ccc(C(=O)OC)cc2)c1` [4-[(E)-[3-[3-(diethylsulfamoyl)phenyl]-5-thioxo-1H-1,2,4-triazol-4-yl]iminomethyl]benzoic acid methyl ester] gave an EC50 greater than 30000 nM.
For `CCOC(=O)c1sc(NC(=O)CSc2nnc(Cc3ccccc3)o2)c(C#N)c1C` [4-cyano-3-methyl-5-[[1-oxo-2-[[5-(phenylmethyl)-1,3,4-oxadiazol-2-yl]thio]ethyl]amino]-2-thiophenecarboxylic acid ethyl ester], the EC50 was greater than 30000 nM.
For `Cc1[nH]n(-c2ccccc2)c(=S)c1/C=N/c1cccc([N+](=O)[O-])c1` [(4E)-5-methyl-4-[(3-nitroanilino)methylene]-2-phenyl-2-pyrazoline-3-thione], the EC50 was greater than 30000 nM.
For `CC(=O)OCCCNc1cc(Sc2nc3ccccc3s2)c2nonc2c1[N+](=O)[O-]` [MLS000521052], the EC50 was greater than 30000 nM.
`CCN(CC)S(=O)(=O)c1cccc(C(=O)NN=Cc2ccc(O)c(O)c2O)c1` was tested, and the EC50 was 381 nM.
Molecule `Cc1cc(Cl)ccc1/N=c1/ssnc1Cl` [MLS000539990] has an EC50 greater than 30000 nM.
`CC1(C)OC(=O)C(=Cc2ccc(-c3ccc(S(N)(=O)=O)cc3)o2)C(=O)O1` [SMR000273939] was tested, and the EC50 was 1870 nM.
With `Cc1cccc(N2CCN(C(=O)Cn3sc4nc(C)cc(C)c4c3=O)CC2C)c1` (stereo unspecified) [2-[2-keto-2-[3-methyl-4-(m-tolyl)piperazino]ethyl]-4,6-dimethyl-isothiazolo[5,4-b]pyridin-3-one] the EC50 was greater than 30000 nM.
Work on `COC(=O)CCC(=O)Nc1sc(C)c(C)c1C(N)=O` [4-[(3-carbamoyl-4,5-dimethyl-2-thienyl)amino]-4-keto-butyric acid methyl ester] yielded an EC50 greater than 30000 nM.
`Cc1cccc(N2CCN(C(=O)CN3CCc4nc(C)cc(C)c4C3=O)CC2C)c1` (stereo unspecified) [KUC103675N] showed an EC50 greater than 30000 nM.
`O=C(Cc1csc(N2CCOCC2)n1)NN=Cc1ccc(O)c(O)c1O` [SMR000369439] gave an EC50 of 421 nM.
In the case of `Nc1c(C(=O)NCC2CCCO2)sc2nc3c(c(-c4ccco4)c12)CC/C3=C/c1ccco1` (stereo unspecified) [UNM-0000305796], the EC50 is reported as 146 nM.
Molecule `CN=c1scc(C)n1N=Cc1ccc(O)c(O)c1O` [(4E)-2,3-dihydroxy-4-[[(4-methyl-2-methylimino-1,3-thiazol-3-yl)amino]methylidene]cyclohexa-2,5-dien-1-one] has an EC50 of 244 nM.
In the case of `Cc1cccc(N2CCN(C(=O)Cn3ccc4nc(C)cc(C)c4c3=O)CC2C)c1` (stereo unspecified) [2,4-dimethyl-6-[2-[3-methyl-4-(3-methylphenyl)piperazin-1-yl]-2-oxidanylidene-ethyl]-1,6-naphthyridin-5-one], the EC50 is reported as greater than 30000 nM.
`O=C(COc1ccccc1C(=O)NN=Cc1ccc(O)c(O)c1)NN=Cc1ccc(O)c(O)c1` [N''-[(Z)-(3-hydroxy-4-oxo-1-cyclohexa-2,5-dienylidene)methyl]-2-[2-[[(Z)-(3-hydroxy-4-oxo-1-cyclohexa-2,5-dienylidene)methyl]hydrazo]-2-oxoethoxy]benzohydrazide] was tested, and the EC50 was greater than 30000 nM.
`NS(=O)(=O)c1ccc(N=NCc2ccc(O)c(O)c2O)c([N+](=O)[O-])c1` [4-[[(E)-(2,3-dihydroxy-4-oxo-1-cyclohexa-2,5-dienylidene)methyl]hydrazo]-3-nitrobenzenesulfonamide] gave an EC50 of 141 nM.
`Cc1cccc(N2CCN(C(=O)COc3nsc4nc(C)cc(C)c34)CC2C)c1` (stereo unspecified) gave an EC50 greater than 30000 nM.
`O=C1C(Cl)=C(N2CCCCC2)C(=O)C(Cl)=C1c1cnc(N2CCCCC2)s1` [MLS000550549] gave an EC50 of 158 nM.
Molecule `Cc1cccc(N2CCN(C(=O)COc3noc4nc(C)cc(C)c34)CC2C)c1` (stereo unspecified) [2-[(4,6-dimethyl-[1,2]oxazolo[5,4-b]pyridin-3-yl)oxy]-1-[3-methyl-4-(3-methylphenyl)piperazin-1-yl]ethanone] has an EC50 greater than 30000 nM.
Molecule `Cc1cc(C)c2c(=O)n(CC(=O)N3CCN(c4ccccc4)CC3)ccc2n1` [2,4-dimethyl-6-[2-oxidanylidene-2-(4-phenylpiperazin-1-yl)ethyl]-1,6-naphthyridin-5-one] has an EC50 of 67 nM.
Molecule `CCC(=O)NC(c1ccc(C)cc1)c1cc([N+](=O)[O-])c2cccnc2c1O` (stereo unspecified) [MLS000553854] has an EC50 of 4410 nM.
`CCN=c1scc(C)n1N=Cc1ccc(O)c(O)c1O` showed an EC50 of 449 nM.
`CN1CCN(C2=C(Cl)C(=O)C(c3cnc(N4CCCCC4)s3)=C(Cl)C2=O)CC1` was tested, and the EC50 was 87 nM.
`CC(NC(=O)c1sc2cc([N+](=O)[O-])ccc2c1Cl)C(C)(C)C` (stereo unspecified) [3-chloranyl-N-(3,3-dimethylbutan-2-yl)-6-nitro-1-benzothiophene-2-carboxamide] was tested, and the EC50 was greater than 30000 nM.
For `O=c1c2ccccc2sn1-c1ccc(S(=O)(=O)N2CCCC2)cc1` [2-(4-pyrrolidin-1-ylsulfonylphenyl)-1,2-benzothiazol-3-one], the EC50 was greater than 30000 nM.
For `Cc1cc(C)c2c(n1)CCN(CC(=O)N1CCN(c3ccccc3)CC1)C2=O` [2,4-dimethyl-6-[2-oxidanylidene-2-(4-phenylpiperazin-1-yl)ethyl]-7,8-dihydro-1,6-naphthyridin-5-one], the EC50 was greater than 30000 nM.
In the case of `O=c1c2ccccc2sn1-c1ccccc1` [2-phenyl-1,2-benzothiazol-3-one], the EC50 is reported as greater than 30000 nM.

Same assay, conditions: inactive by the depositor's call
`CCOc1ccccc1-c1c2cc(O)c(=O)cc-2oc2cc(O)c(O)cc12` [MLS000578271] gave an EC50 of 3570 nM.
